Results published in the NIST ThermoML archive (doi:10.1021/je049671t).

Assay: xn = mol fraction of the nth substance listed
Settings: Liquid, Vibrating tube method

CC(C)C [2-methylpropane] + CCCC
Settings | mass density [kg/m3]
260 K, 6987.3 kPa, x2 = 0.5 | 613.2
260 K, 7000.3 kPa, x2 = 0.25 | 608.81
260 K, 7024.3 kPa, x2 = 0.75 | 617.88
280 K, 491.4 kPa, x2 = 0.25 | 578.14
280 K, 494.5 kPa, x2 = 0.75 | 588.49
280 K, 514.1 kPa, x2 = 0.5 | 583.32
280 K, 997.4 kPa, x2 = 0.5 | 584.09
280 K, 997.5 kPa, x2 = 0.25 | 578.99
280 K, 997.9 kPa, x2 = 0.75 | 589.24
280 K, 1496 kPa, x2 = 0.25 | 579.79
280 K, 1499.8 kPa, x2 = 0.75 | 590.03
280 K, 1515.6 kPa, x2 = 0.5 | 584.89
280 K, 1990.8 kPa, x2 = 0.5 | 585.62
280 K, 1991.8 kPa, x2 = 0.75 | 590.76
280 K, 2009.2 kPa, x2 = 0.25 | 580.63
280 K, 2501 kPa, x2 = 0.75 | 591.51
280 K, 2510.6 kPa, x2 = 0.5 | 586.43
280 K, 2512.7 kPa, x2 = 0.25 | 581.42
280 K, 3001.9 kPa, x2 = 0.75 | 592.24
280 K, 3016.2 kPa, x2 = 0.5 | 587.2
280 K, 3023 kPa, x2 = 0.25 | 582.23
280 K, 3506.9 kPa, x2 = 0.25 | 582.98
280 K, 3511.3 kPa, x2 = 0.75 | 592.97
280 K, 3532.6 kPa, x2 = 0.5 | 587.97
280 K, 4008 kPa, x2 = 0.25 | 583.74
280 K, 4010.5 kPa, x2 = 0.75 | 593.64
280 K, 4012.8 kPa, x2 = 0.5 | 588.67
280 K, 4502.1 kPa, x2 = 0.75 | 594.34
280 K, 4504.4 kPa, x2 = 0.25 | 584.53
280 K, 4508.3 kPa, x2 = 0.5 | 589.4
280 K, 4994.2 kPa, x2 = 0.75 | 595.02
280 K, 5006.3 kPa, x2 = 0.25 | 585.27
280 K, 5025.7 kPa, x2 = 0.5 | 590.15
280 K, 5479.3 kPa, x2 = 0.5 | 590.82
280 K, 5523.8 kPa, x2 = 0.25 | 586.04
280 K, 5525.5 kPa, x2 = 0.75 | 595.77
280 K, 5942.8 kPa, x2 = 0.75 | 596.37
280 K, 5993.3 kPa, x2 = 0.5 | 591.55
280 K, 6024.7 kPa, x2 = 0.25 | 586.78
280 K, 6475.5 kPa, x2 = 0.75 | 597.09
280 K, 6510.8 kPa, x2 = 0.25 | 587.5
280 K, 6528.5 kPa, x2 = 0.5 | 592.3
280 K, 6953.9 kPa, x2 = 0.5 | 592.89
280 K, 6984.1 kPa, x2 = 0.25 | 588.18
280 K, 7039.4 kPa, x2 = 0.75 | 597.8
300 K, 312 kPa, x2 = 0.5 | 559.4
300 K, 502.9 kPa, x2 = 0.25 | 554.17
300 K, 505.7 kPa, x2 = 0.75 | 565.16
300 K, 510.2 kPa, x2 = 0.5 | 559.82
300 K, 983.9 kPa, x2 = 0.5 | 560.78
300 K, 999.4 kPa, x2 = 0.25 | 555.23
300 K, 1002.4 kPa, x2 = 0.75 | 566.11
300 K, 1493 kPa, x2 = 0.75 | 567.04
300 K, 1497.1 kPa, x2 = 0.25 | 556.26
300 K, 1509.8 kPa, x2 = 0.5 | 561.83
300 K, 1992.8 kPa, x2 = 0.5 | 562.77
300 K, 1997.4 kPa, x2 = 0.25 | 557.29
300 K, 2007.5 kPa, x2 = 0.75 | 568
300 K, 2498.6 kPa, x2 = 0.25 | 558.33
300 K, 2510.2 kPa, x2 = 0.75 | 568.9
300 K, 2513.9 kPa, x2 = 0.5 | 563.78
300 K, 2995.9 kPa, x2 = 0.75 | 569.79
300 K, 3011.4 kPa, x2 = 0.5 | 564.72
300 K, 3014 kPa, x2 = 0.25 | 559.36
300 K, 3476.1 kPa, x2 = 0.5 | 565.59
300 K, 3483.6 kPa, x2 = 0.75 | 570.68
300 K, 3510.6 kPa, x2 = 0.25 | 560.33
300 K, 3988.4 kPa, x2 = 0.5 | 566.54
300 K, 4007.7 kPa, x2 = 0.25 | 561.28
300 K, 4013.5 kPa, x2 = 0.75 | 571.62
300 K, 4453.4 kPa, x2 = 0.5 | 567.4
300 K, 4467 kPa, x2 = 0.75 | 572.38
300 K, 4513.9 kPa, x2 = 0.25 | 562.25
300 K, 4997.8 kPa, x2 = 0.75 | 573.31
300 K, 5016.3 kPa, x2 = 0.25 | 563.17
300 K, 5026.1 kPa, x2 = 0.5 | 568.4
300 K, 5472.7 kPa, x2 = 0.5 | 569.19
300 K, 5473.2 kPa, x2 = 0.75 | 574.11

mass density [kg/m3]
Settings | x2 = 0.25 | x2 = 0.5 | x2 = 0.75
260 K | 600.04 | 604.76 | 609.84
280 K | 577.61 | 582.79 | 588.07
